Results taken from patent US6495559B2, “NPY Y5 receptor antagonists” (Merck & Co., Inc., priority 1998, dated 2002).

Row | melting point | Compound
1 | 272 to 274 °C | CS(=O)(=O)N1CC2(CCN(C(=O)Nc3ccc(-c4ccncc4)cc3)CC2)c2ccccc21
2 | 220 to 222 °C | CCc1cc(-c2ccc(NC(=O)N3CCC4(CC3)CN(S(C)(=O)=O)c3ccccc34)cc2)ccn1.Cl
3 | 222 to 225 °C | CS(=O)(=O)N1CC2(CCN(C(=O)Nc3ccc(C(=O)c4ccccc4)cc3)CC2)c2ccccc21.Cl
4 | 235 to 237 °C | CS(=O)(=O)N1CC2(CCN(C(=O)Nc3cc(-c4ccccc4)no3)CC2)c2ccccc21
5 | 139 to 140 °C | CCS(=O)(=O)N1CC2(CCN(C(=O)Nc3cn(-c4ccccc4)cn3)CC2)c2ccccc21.Cl
6 | 140 to 141 °C | CCS(=O)(=O)N1CC2(CCN(C(=O)Nc3cn(-c4ccccc4)cn3)CC2)c2cc(F)ccc21.Cl
7 | 203 to 205 °C | CS(=O)(=O)N1CC2(CCN(C(=O)Nc3cnc(-c4cccc(F)c4)cn3)CC2)c2ccccc21 [Compound 101, N-[5-(3-fluorophenyl)-2-pyrazinyl]-1-methylsulfonylspiro[indoline-3,4′-piperidine]-1′-carboxamide]
8 | 186 to 188 °C | COc1ccccc1-c1cnc(NC(=O)N2CCC3(CC2)CN(S(C)(=O)=O)c2ccccc23)cn1 [Compound 102, N-[5-(2-methoxyphenyl)-2-pyrazinyl]-1-methylsulfonylspiro[indoline-3,4′-piperidine]-1′-carboxamide]
9 | 197 to 199 °C | CS(=O)(=O)N1CC2(CCN(C(=O)Nc3cnc(-c4ccccc4Cl)cn3)CC2)c2ccccc21 [Compound 103, N-[5-(2-chlorophenyl)-2-pyrazinyl]-1-methylsulfonylspiro[indoline-3,4′-piperidine]-1′-carboxamide]
10 | 234 to 235 °C | CS(=O)(=O)N1CC2(CCN(C(=O)Nc3cnc(-c4ccccn4)cn3)CC2)c2ccccc21 [Compound 104, 1-methylsulfonyl-N-[5-(2-pyridyl)-2-pyrazinyl]spiro[indoline-3,4′-piperidine]-1′-carboxamide]
11 | 180.5 to 182.7 °C | C=CCc1cnc(NC(=O)N2CCC3(CC2)CN(S(C)(=O)=O)c2ccccc23)cn1 [Compound 105, 1-methylsulfonyl-N-[5-(2-propenyl)-2-pyrazinyl]spiro[indoline-3,4′-piperidine]-1′-carboxamide]
12 | 242 to 242.5 °C | CCc1nc(-c2ccc(NC(=O)N3CCC4(CC3)CN(S(C)(=O)=O)c3ccccc34)cc2)cs1 [Compound 107, N-[4-(2-ethyl-4-thiazolyl)phenyl]-1-methylsulfonylspiro[indoline-3,4′-piperidine]-1′-carboxamide]
13 | 143.2 to 147.4 °C | CS(=O)(=O)N1CC2(CCN(C(=O)Nc3ccc(-c4nccs4)cc3)CC2)c2ccccc21 [Compound 111, 1-methylsulfonyl-N-[4-(2-thiazolyl)phenyl]spiro[indoline-3,4′-piperidine]-1′-carboxamide]
14 | 214 °C | CS(=O)(=O)N1CC2(CCN(C(=O)Nc3ccc(-c4ccccc4)cn3)CC2)c2ccccc21 [Compound 112, 1-methylsulfonyl-N-(5-phenyl-2-pyridyl)spiro[indoline-3,4′-piperidine]-1′-carboxamide]
15 | 251 to 253 °C | CS(=O)(=O)N1CC2(CCN(C(=O)Nc3cnc(-c4ccccc4)nc3)CC2)c2ccccc21 [Compound 113, 1-methylsulfonyl-N-(2-phenyl-5-pyrimidinyl)spiro[indoline-3,4′-piperidine]-1′-carboxamide]
16 | 224 °C | CS(=O)(=O)N1CC2(CCN(C(=O)Nc3ccc(-c4ccccc4)nc3)CC2)c2ccccc21 [Compound 114, 1-methylsulfonyl-N-(2-phenyl-5-pyridyl)spiro[indoline-3,4′-piperidine]-1′-carboxamide]
17 | 122 to 123 °C | CS(=O)(=O)N1CC2(CCN(C(=O)Nc3ncc(-c4ccccc4)cn3)CC2)c2ccccc21 [Compound 115, 1-methylsulfonyl-N-(5-phenyl-2-pyrimidinyl)spiro[indoline-3,4′-piperidine]-1′-carboxamide]
18 | 252 to 254 °C | CS(=O)(=O)N1CC2(CCN(C(=O)Nc3ccc(N4CCCC4)nc3)CC2)c2ccccc21 [Compound 116, 1-methylsulfonyl-N-[2-(1-pyrrolidinyl)-5-pyridyl]spiro[indoline-3,4′-piperidine]-1′-carboxamide]
19 | 189 to 192 °C | CS(=O)(=O)N1CC2(CCN(C(=O)Nc3nc(-c4ccccc4)co3)CC2)c2ccccc21 [Compound 119, 1-methylsulfonyl-N-(4-phenyloxazol-2-yl)spiro[indoline-3,4′-piperidine]-1′-carboxamide]

Row | melting point | Compound
20 | 133 to 136 °C | CS(=O)(=O)N1CC2(CCN(C(=O)Nc3nsc(-c4ccccc4)n3)CC2)c2ccccc21 [Compound 123, 1-methylsulfonyl-N-(5-phenyl-1,2,4-thiadiazol-3-yl)spiro[indoline-3,4′-piperidine]-1′-carboxamide]
21 | 216 to 218 °C | COc1cccc(-n2cnc(NC(=O)N3CCC4(CC3)CN(S(C)(=O)=O)c3ccccc34)c2)c1 [Compound 126, N-[1-(3-methoxyphenyl)imidazol-4-yl]-1-methylsulfonylspiro[indoline-3,4′-piperidine]-1′-carboxamide]
22 | 232 to 234 °C | CS(=O)(=O)N1CC2(CCN(C(=O)Nc3cn(-c4cccc(Cl)c4)cn3)CC2)c2ccccc21 [Compound 127, N-[1-(3-chlorophenyl)imidazol-4-yl]-1-methylsulfonylspiro[indoline-3,4′-piperidine]-1′-carboxamide]
23 | 195 to 199 °C | COc1cccc2oc(NC(=O)N3CCC4(CC3)CN(S(C)(=O)=O)c3ccccc34)nc12 [Compound 128, N-(4-methoxybenzoxazol-2-yl)-1-methylsulfonylspiro[indoline-3,4′-piperidine]-1′-carboxamide]
24 | 243 to 244 °C | CS(=O)(=O)N1CC2(CCN(C(=O)Nc3nc4cc(F)ccc4s3)CC2)c2ccccc21 [Compound 129, N-(5-fluorobenzothiazol-2-yl)-1-methylsulfonylspiro[indoline-3,4′-piperidine]-1′-carboxamide]
25 | 224 to 225 °C | Cc1ccc2nc(NC(=O)N3CCC4(CC3)CN(S(C)(=O)=O)c3ccccc34)cnc2c1 [Compound 130, 1-methylsulfonyl-N-(6-methylquinoxalin-2-yl)spiro[indoline-3,4′-piperidine]-1′-carboxamide]
26 | 219 to 220 °C | Cc1cccc2ccc(NC(=O)N3CCC4(CC3)CN(S(C)(=O)=O)c3ccccc34)nc12 [Compound 131, 1-methylsulfonyl-N-(8-methylquinolin-2-yl)spiro[indoline-3,4′-piperidine]-1′-carboxamide]
27 | 213 to 214 °C | CS(=O)(=O)N1CC2(CCN(C(=O)Nc3cnc4ccc(Cl)cc4n3)CC2)c2ccccc21 [Compound 132, N-(7-chloroquinoxalin-2-yl)-1-methylsulfonylspiro[indoline-3,4′-piperidine]-1′-carboxamide]
28 | 194 to 196 °C | COc1ccc2oc(NC(=O)N3CCC4(CC3)CN(S(C)(=O)=O)c3ccccc34)nc2c1 [Compound 134, N-(5-methoxybenzoxazol-2-yl)-1-methylsulfonylspiro[indoline-3,4′-piperidine]-1′-carboxamide]
29 | 172 to 176 °C | CS(=O)(=O)N1CC2(CCN(C(=O)Nc3cc4cc(Cl)ccc4[nH]3)CC2)c2ccccc21 [Compound 135, N-(5-chlorobenzoazol-2-yl)-1-methylsulfonylspiro[indoline-3,4′-piperidine]-1′-carboxamide]
30 | 182 to 183 °C | Cc1cccc2sc(NC(=O)N3CCC4(CC3)CN(S(C)(=O)=O)c3ccccc34)nc12 [Compound 137, N-(4-methylbenzothiazol-2-yl)-1-methylsulfonylspiro[indoline-3,4′-piperidine]-1′-carboxamide]
31 | 234 to 237 °C | CS(=O)(=O)N1CC2(CCN(C(=O)Nc3cnc(-c4ccccc4)cn3)CC2)c2ccc(F)cc21 [Compound 139, 6-fluoro-1-methylsulfonyl-N-(5-phenyl-2-pyrazinyl)spiro[indoline-3,4′-piperidine]-1′-carboxamide]
32 | 178.3 to 178.5 °C | CCS(=O)(=O)N1CC2(CCN(C(=O)Nc3cc(-c4ccc(Cl)cc4)on3)CC2)c2ccccc21 [Compound 143, N-[5-(4-chlorophenyl)isoxazol-3-yl]-1-ethylsulfonylspiro[indoline-3,4′-piperidine]-1′-carboxamide]
33 | 247 to 249 °C | CS(=O)(=O)N1CC2(CCN(C(=O)Nc3cnc(-c4nncs4)cn3)CC2)c2ccccc21 [Compound 146, 1-methylsulfonyl-N-[5-(1,3,4-thiadiazol-2-yl)-2-pyrazinyl]spiro[indoline-3,4′-piperidine]-1′-carboxamide]
34 | 234 to 238 °C | CS(=O)(=O)N1CC2(CCN(C(=O)Nc3cnc(-c4ncns4)cn3)CC2)c2ccccc21 [Compound 147, 1-methylsulfonyl-N-[5-(1,2,4-thiadiazol-5-yl)-2-pyrazinyl]spiro[indoline-3,4′-piperidine]-1′-carboxamide]
35 | 242 to 243 °C | CS(=O)(=O)N1CC2(CCN(C(=O)Nc3cnc(-c4nncs4)cn3)CC2)c2ccc(F)cc21 [Compound 148, 6-fluoro-1-methylsulfonyl-N-[5-(1,3,4-thiadiazol-2-yl)-2-pyrazinyl]spiro[indoline-3,4′-piperidine]-1′-carboxamide]
36 | 237 to 239 °C | CS(=O)(=O)N1CC2(CCN(C(=O)Nc3cnc(-c4ncns4)cn3)CC2)c2ccc(F)cc21 [Compound 149, 6-fluoro-1-methylsulfonyl-N-[5-(1,2,4-thiadiazol-5-yl)-2-pyrazinyl]spiro[indoline-3,4′-piperidine]-1′-carboxamide]
37 | 262 to 266 °C | CS(=O)(=O)N1CC2(CCN(C(=O)Nc3cnc(-c4nncs4)cn3)CC2)c2cc(F)ccc21 [Compound 150, 5-fluoro-1-methylsulfonyl-N-[5-(1,3,4-thiadiazol-2-yl)-2-pyrazinyl]spiro[indoline-3,4′-piperidine]-1′-carboxamide]
38 | 239 to 240 °C | CS(=O)(=O)N1CC2(CCN(C(=O)Nc3cnc(-c4ncns4)cn3)CC2)c2cc(F)ccc21 [Compound 151, 5-fluoro-1-methylsulfonyl-N-[5-(1,2,4-thiadiazol-5-yl)-2-pyrazinyl]spiro[indoline-3,4′-piperidine]-1′-carboxamide]
